Measurements from patent US8008354B2, “Death receptor sensitizing compounds and methods of use therefor” (Burnham Institute for Medical Research, priority 2006, dated 2011).

Experiments:
[1] = system: dsRed-PPC-1 cells; test: In vivo survival and growth of pre-treated dsRed-PPC-1 cells injected into SCID mice
Experimental: FIG. 16. Decreases in cellular FLIP levels by siRNA diminishes the in vivo survival and growth of circulating prostate cancer cells. (A) Fluorescent dsRed-PPC-1 cells were transfected in culture with anti-FLIP siRNA (siFLIP, 25 nM) or control siRNA (siCtrl, 25 nM). Eight hours after transfection cells were harvested and 3.5×10^6 viable cells were injected into the tail veins of sublethally irradiated SCID mice. Five weeks after injection, or when mice became moribund, mice were sacrificed and their organs imaged using a fluorescent microscope (n=9). Representative images of tumor formation in the lung, bone, and liver are shown. (B) The total number and area of distant tumors from mice described above were quantified using image analysis software. Tumors were quantified from all five lobes of the lungs. Data points represent measurements from each mouse. Differences in the number and area of tumors are significant by the rank sum test. The bar represents the median of the population. Measurements were completed on unaltered images.
FIG. 17. Decreases in cellular FLIP levels by 5809354 diminishes the in vivo survival and growth of circulating prostate cancer cells. (A) Fluorescent dsRed-PPC-1 cells were treated in culture with 5809354 (30 μM) or buffer control. Sixteen hours after treatment cells were harvested and 3.5×10^6 viable cells were injected into the tail veins of sublethally irradiated SCID mice. Five weeks after injection, or when mice became moribund, mice were sacrificed and their organs imaged using a fluorescent microscope (n=8). Representative images of tumor formation in the lung, bone, and liver are shown. (B) The number and area of distant tumors from mice described above were quantified using image analysis software. Tumors were quantified from all five lobes of the lungs. Data points represent measurements from each mouse. Differences in the number and area of tumors are significant by the rank sum test. […]
In vivo studies. […] 3.5×10^6 viable cells (as measured by trypan blue exclusion assay) were either injected via the tail vein or subcutaneously into the hind limbs into sublethally irradiated (3.5 Gy) SCID mice (10 mice per treatment). […] Red fluorescent tumors were detected via whole body imaging and whole organ imaging using a Leica MZ FLIII fluorescent stereomicroscope with a 100 W mercury lamp, a 560/40 excitation filter, and a 610 long-pass emission filter. Images were acquired using a Leica DC350 digital camera at 0.8× magnification and analyzed using Image Pro Plus 6.0 (MediaCybernetics). A single common threshold was applied to identify and measure fluorescence in each organ (Cairns et al., 2004). The number of fluorescent spots and the corresponding pixel area were recorded for each lung lobe. All quantification was performed on unmanipulated images. […]

[2] = system: PC-3, DU-145, LNCaP, T47D, MB-MDA-468 and OVCAR-3 cells; test: Anoikis of additional malignant cell lines: colony formation after suspension culture; type: cell-based
Experimental: FIG. 14. Tumor cell sensitivity to anoikis correlates with sensitivity to Fas-mediated apoptosis. PC-3, DU-145, and LNCaP prostate, T47D and MB-MDA-468 breast, and OVCAR-3 ovarian cancer cells were cultured under adherent conditions with increasing concentrations of 5809354, in the presence or absence of Fas-activating antibody (CH-11, 100 ng/mL). Thirty hours after incubation, cell viability was determined using the MTS assay. Cell lines were also cultured under suspension conditions in the presence or absence of 5809354. Thirty hours after incubation, equal volumes of suspension-cultured cells were replated in a colony formation assay. Data represents the mean±SEM percent of viable cells or colonies compared to untreated controls.
Cell viability apoptosis, colony formation, and caspase activation assays. Cell viability was assessed using the MTS reduction assay (Promega, Madison, Wis., USA) according to the manufacturer's protocols and as described in Schimmer et al. (2006). Apoptosis was measured by flow cytometry to detect cell surface annexin V expression and propidium iodide (PI) uptake (Biovision, Mountain View, Calif., USA) as described in Carter et al. (2005). […] Clonogenic growth after suspension culture was measured using colony formation assays. […] Colonies were fixed, stained with methylene blue, and counted. […]

## 4-(4-chloro-2-methylphenoxy)-N-hydroxybutanamide [compound 5809354]
[1]; cells treated in culture (5809354 30 μM 16 hours; FLIP siRNA 25 nM 8 hours), injected into tail veins of sublethally irradiated SCID mice
  Median survival: 32 days
[1]; intravenous injection of treated cells, five weeks or when moribund
  tumor formation in lung, bone, and liver: decreased tumor formation
[1]; intravenous injection of treated cells, image-based analysis
  median tumor number and median total tumor area within the lung: decreased
[1]; subcutaneous injection of treated cells, 3 weeks (data not shown)
  tumor weight after subcutaneous injection: no difference
[2]; LNCaP or MB-MDA-468 cells
  sensitization to anoikis: did not sensitize
[2]; PC-3 and DU-145 prostate, T47D breast and OVCAR-3 ovarian cancer cell lines
  sensitization to anoikis: sensitized
